According to paper PMC4128814, “A High Throughput Screen Identifies Potent and Selective Inhibitors to Human Epithelial 15-Lipoxygenase-2” (PLoS ONE, 2014):
pIC50: −log10 of the molar value. Like-named read-outs stand apart in the source and are kept apart here.

What was measured:
15-LOX-2 [1] = target: T1, 15-LOX-2 (Homo sapiens, UniProt O15296); test: Lipoxygenase UV-Vis assay, 15-LOX-2; type: biochemical; details: for inhibition at 25 µM: read-out: % Inhibition at 25 μM; for potency relative to parent compound: 15-LOX-2
T1 construct: His6 (N); made in house
T1 sequence (O15296 1-676): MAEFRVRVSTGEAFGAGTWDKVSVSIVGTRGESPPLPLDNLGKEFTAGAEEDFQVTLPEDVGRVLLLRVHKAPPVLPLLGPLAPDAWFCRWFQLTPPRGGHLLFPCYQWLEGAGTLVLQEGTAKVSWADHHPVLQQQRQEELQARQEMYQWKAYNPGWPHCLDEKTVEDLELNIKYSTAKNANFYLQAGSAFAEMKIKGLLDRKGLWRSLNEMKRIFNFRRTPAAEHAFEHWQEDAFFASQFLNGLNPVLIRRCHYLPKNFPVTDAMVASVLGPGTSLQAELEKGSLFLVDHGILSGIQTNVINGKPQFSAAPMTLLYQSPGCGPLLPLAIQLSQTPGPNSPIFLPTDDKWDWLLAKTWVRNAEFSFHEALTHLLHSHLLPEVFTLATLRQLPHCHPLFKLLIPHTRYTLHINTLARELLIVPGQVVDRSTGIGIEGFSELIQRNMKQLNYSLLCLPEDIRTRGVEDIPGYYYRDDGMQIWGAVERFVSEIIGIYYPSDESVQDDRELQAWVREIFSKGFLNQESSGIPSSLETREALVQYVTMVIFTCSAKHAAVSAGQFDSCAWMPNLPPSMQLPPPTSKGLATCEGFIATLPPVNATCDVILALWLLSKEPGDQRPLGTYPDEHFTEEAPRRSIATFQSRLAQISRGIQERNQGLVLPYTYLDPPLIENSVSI
Procedure: The reactions were initiated by adding 200 nM 15-LOX-2, 30 nM 12-LOX, 40 nM 15-LOX-1, or approximately 100–300 nM (5–10 µL) of 5-LOX crude extract to a cuvette with 2 mL reaction buffer, constantly stirred using a magnetic stir bar at room temperature (22°C). Reaction buffers used for various LOX isozymes were as follows: 25 mM HEPES (pH 7.3), 0.3 mM CaCl2, 0.1 mM EDTA, 0.2 mM ATP, 0.01% Triton X-100, 10 µM AA for the crude, ammonium sulfate precipitated 5-LOX; and 25 mM HEPES (pH 7.5), 0.01% Triton X-100, 10 µM AA for 15-LOX-2, 15-LOX-1, and 12-LOX. The substrate concentration was quantitatively determined by allowing the enzymatic reaction to go to completion in the presence of 15-LOX-2. […] The data were then plotted against inhibitor concentration, followed by a hyperbolic saturation curve fit (assuming total enzyme concentration [E]≪IC50). […] All inhibitors were stored at −20°C in DMSO. NDGA was utilized as positive control for the selectivity assays for the various LOX isozymes.
Once the two lead compounds were identified, a limited series of related compounds were identified and screened to investigate structure/activity relationships (Figure 3). […] We are currently exploring this line of inquiry.

15-LOX-2 [2] = target: T1, 15-LOX-2; details: control molecules known not to inhibit 15-LOX-2; cited from earlier work
[3] = 25 µM inhibitor, 15-LOX-2, 10 µM AA

inhibition at 25 µM (15-LOX-2 [1]; [3]) [%] | pIC50 (15-LOX-2 [1]; read-out: 15-LOX-2 IC50) | SMILES | also measured
28 | < 4.30 | CCC1CCC(c2nnc(-c3ccc(Br)cc3)o2)CC1 (stereo not shown) [MLS000578382] | –
4 | < 4.00 | Clc1ccc(-c2nnc(CCc3ccccc3)o2)c(Cl)c1 [MLS000325223] | –
65 | 5.27 | Clc1cccc(CSc2ncn(-c3ccccc3)n2)c1 [MLS000594591] | –
– | – | CC(=O)NC(c1cccs1)c1cc(Br)c2cccnc2c1O (stereo not shown) [ML127] | pIC50 (15-LOX-2 [2]): < 4.00
5 | < 4.00 | CCC1CCC(c2nnc(-c3ccc([N+](=O)[O-])cc3)o2)CC1 (stereo not shown) [MLS000723362] | –
53 | 5.05 | Clc1ccccc1CSc1ncn(-c2ccccc2)n1 [MLS000550113] | –
56 | 5.19 | c1ccc(CSc2ncn(-c3ccccc3)n2)cc1 [MLS000108825] | –
6 | < 4.00 | O=C(CCc1nnc(-c2ccccc2)o1)c1ccc(Cl)cc1 [MLS001019001] | –
66 | 5.96 | O=C(c1nnc(-c2ccc(Cl)cc2)o1)C1CCCC1 [MLS001007221] | potency relative to parent compound (15-LOX-2 [1]): comparable activity
4 | < 4.00 | Clc1ccc(-c2nnc(C3CC3)o2)cc1 [MLS000859524] | –
4 | < 4.00 | c1cncc(-c2nnc(C3CCCCC3)o2)c1 [MLS000033229] | –
0 | < 4.00 | Cc1ccc(NC(=O)CSc2ncn(-c3ccccc3)n2)cc1C [MLS000594570] | –
3 | < 4.00 | O=C(c1nnc(-c2ccccc2)o1)C1CC1 [MLS001033918] | –
0 | < 4.00 | CCCc1nnc(-c2ccc(OC)cc2)o1 [MLS000756111] | –
14 | < 4.00 | O=[N+]([O-])c1cccc(-c2nnc(C34CC5CC(CC(C5)C3)C4)o2)c1 [MLS000585389] | –
– | – | O=[N+]([O-])c1cc(-c2nnc(C34CC5CC(CC(C5)C3)C4)o2)cc([N+](=O)[O-])c1 [MLS000544312] | pIC50 (15-LOX-2 [1]): < 4.00; inhibition at 25 µM (15-LOX-2 [1]): 0%
94 | 6.13 | Clc1ccc(CSc2ncn(-c3ccccc3)n2)cc1 [MLS000550104] | potency relative to parent compound (15-LOX-2 [1]): approximately 4 fold
0 | < 4.00 | CC(=O)Nc1ccc(C(=O)CSc2ncn(-c3ccccc3)n2)cc1 [MLS000108839] | –
